Experiment [1] addresses Trypanothione reductase (Trypanosoma cruzi) (UniProt P28593). Nature of the experiment: Inhibition of Trypanosoma cruzi recombinant trypanothione reductase at 100 uM by spectrophotometry using 50 uM trypanothione disulfide.
The next experiment concerns L6. As to the kind of experiment: Cytotoxicity against rat L6 cells. Format: cell-based.
For experiment [2], the target named is Trypanothione reductase (Trypanosoma cruzi) (UniProt P28593). As to the kind of experiment: Inhibition of Trypanosoma cruzi recombinant trypanothione reductase at 100 uM by spectrophotometry using 100 uM trypanothione disulfide.
Another experiment concerns Trypanosoma cruzi. As to the kind of experiment: Antitrypanosomal activity against Trypanosoma cruzi amastigotes infected in rat L6 cells. Format: functional, organism-based.
The next experiment relates to Plasmodium falciparum. As to the kind of experiment: Antiplasmodial activity against intraerythrocytic form of Plasmodium falciparum. It counts as functional, organism-based.
In experiment [3] the test system is Trypanosoma brucei rhodesiense. As to the kind of experiment: Antitrypanosomal activity against Trypanosoma brucei rhodesiense bloodstream trypomastigotes. It counts as functional, organism-based.
A further experiment has as its system Leishmania donovani. As to the kind of experiment: Antileishmanial activity against Leishmania donovani axenic amastigotes. Format: functional, organism-based.
In experiment [4] the target is T1, Trypanothione reductase (Trypanosoma cruzi, UniProt P28593). As to the kind of experiment: Inhibition of Trypanosoma cruzi recombinant trypanothione reductase by spectrophotometry.
Experiment [5] deals with Trypanothione reductase (Trypanosoma cruzi) (UniProt P28593). Nature of the experiment: Inhibition of Trypanosoma cruzi recombinant trypanothione reductase at 25 uM by spectrophotometry using 50 uM trypanothione disulfide.
The target is the same in experiment [6]. Nature of the experiment: Inhibition of Trypanosoma cruzi recombinant trypanothione reductase at 25 uM by spectrophotometry using 100 uM trypanothione disulfide.
Experiment [7] addresses T2, Glutathione reductase, mitochondrial (Homo sapiens) (UniProt P00390).
T2 sequence (whole entry): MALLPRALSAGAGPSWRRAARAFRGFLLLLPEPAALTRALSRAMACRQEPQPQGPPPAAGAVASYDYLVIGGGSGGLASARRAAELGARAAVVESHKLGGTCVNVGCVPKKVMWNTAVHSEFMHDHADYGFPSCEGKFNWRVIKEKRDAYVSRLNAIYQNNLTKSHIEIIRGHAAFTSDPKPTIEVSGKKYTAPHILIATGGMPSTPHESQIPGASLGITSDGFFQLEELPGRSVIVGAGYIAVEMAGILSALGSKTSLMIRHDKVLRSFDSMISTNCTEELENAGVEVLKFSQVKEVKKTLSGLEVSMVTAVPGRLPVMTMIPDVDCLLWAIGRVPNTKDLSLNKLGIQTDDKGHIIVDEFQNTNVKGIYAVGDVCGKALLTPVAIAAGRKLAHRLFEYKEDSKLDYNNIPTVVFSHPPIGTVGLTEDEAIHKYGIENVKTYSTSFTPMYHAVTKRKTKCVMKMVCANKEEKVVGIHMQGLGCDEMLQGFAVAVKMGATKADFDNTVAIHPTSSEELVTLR
As to the kind of experiment: Inhibition of human glutathione reductase at 10 uM by spectrophotometry in presence of 100 uM GSSG.

For experiment [8], the target named is T1, Trypanothione reductase. As to the kind of experiment: Inhibition of Trypanosoma cruzi recombinant trypanothione reductase by spectrophotometry-based mixed inhibition type assay.
The target in experiment [9] is T1, Trypanothione reductase. Nature of the experiment: Inhibition of Trypanosoma cruzi recombinant trypanothione reductase by spectrophotometry-based non competitive inhibition type assay.

Structures are written as SMILES. pIC50, pKi: −log10 of the molar value. The source made the active and inactive calls. No cut-off for these calls is given here.

The record followed here is ChEMBL document CHEMBL1158418, “Privileged structure-guided synthesis of quinazoline derivatives as inhibitors of trypanothione reductase” (Bioorg Med Chem Lett, 2009).

What is called inhibition is the percentage by which the read-out fell short of the control. Broadly, the pIC50 is the negative decadic logarithm of the IC50, by convention in mol/L. A lower pIC50 goes with a large IC50. Usually pKi stands for the Ki on a negative log10 scale, so that one unit is a factor of ten.

T1 sequence (P28593 whole entry): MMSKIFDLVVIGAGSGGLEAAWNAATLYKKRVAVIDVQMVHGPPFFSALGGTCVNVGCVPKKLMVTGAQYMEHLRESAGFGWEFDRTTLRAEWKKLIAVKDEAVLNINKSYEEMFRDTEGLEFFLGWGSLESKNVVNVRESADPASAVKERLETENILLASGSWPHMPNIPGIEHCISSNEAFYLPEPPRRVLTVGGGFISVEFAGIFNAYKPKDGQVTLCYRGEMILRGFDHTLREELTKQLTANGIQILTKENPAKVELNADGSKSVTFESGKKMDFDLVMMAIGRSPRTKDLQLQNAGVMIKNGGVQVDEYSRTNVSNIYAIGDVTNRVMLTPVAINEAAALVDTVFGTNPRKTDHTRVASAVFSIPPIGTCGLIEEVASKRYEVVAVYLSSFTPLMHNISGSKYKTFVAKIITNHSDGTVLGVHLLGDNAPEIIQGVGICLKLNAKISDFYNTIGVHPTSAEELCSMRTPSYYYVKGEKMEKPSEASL
Chain of Trypanothione reductase (Trypanosoma cruzi) (P28593 whole entry, looked up): as the sequence (P28593 whole entry) above

As for `COc1cc2nc(N3CCN(C(=O)Cc4c[nH]c5ccccc45)CC3)nc(N)c2cc1OC`, the results for the inhibition in experiment [1] and in experiment [2] were 13% and 23%, respectively. Further, the pIC50 in the experiment on L6 is 4.71; in the experiment with Trypanosoma cruzi it was 4.99; in the experiment on Plasmodium falciparum, 5.87; in [3] it was 5.66; in the experiment with Leishmania donovani it was 4.37.

As for `COc1cc2nc(N3CCN(C(=O)[C@@H]4Cc5ccccc5CN4)CC3)nc(N)c2cc1OC`, the inhibition in experiment [1] and in experiment [2] was 0% each time. For the same molecule, the pIC50 with L6 is 4.85; in the experiment with Trypanosoma cruzi, 4.84; in the experiment on Plasmodium falciparum, 5.68; in experiment [3] it was 5.74; in the experiment on Leishmania donovani, less than 4.17.

Consider `COc1cc2nc(N3CCN(C4=CC(=O)c5ccccc5C4=O)CC3)nc(N)c2cc1OC`, for which the pKi at Trypanothione reductase [4] is 5.12; on Trypanothione reductase [8] it was 4.66. In addition, the pIC50 in the experiment with L6 was 5.56; with Trypanosoma cruzi, 5.43; in the experiment on Plasmodium falciparum, 6.28; in experiment [3], 6.92; in the experiment with Leishmania donovani, 5.75. Besides, the figures for the inhibition in experiment [5] and in [6] were 53% and 57%, respectively. Besides, the inhibition result in experiment [7] was “inactive”.

Turning to `COc1cc(C(=N)NC2CCC(CC3CCC(/N=C(\N)c4ccc(OCc5ccccc5)c(OC)c4)CC3)CC2)ccc1OCc1ccccc1` (stereo not drawn), the pKi at Trypanothione reductase [8] was 4.80.

Turning to `CN(C)CCOc1cc2nc(N3CCN(C4=CC(=O)c5ccccc5C4=O)CC3)nc(N)c2cc1OCCN(C)C`, the pKi at Trypanothione reductase [9] is 4.96.

For the molecule `CN(C)CCOc1cc2nc(N3CCN(C(=O)Cc4c[nH]c5ccccc45)CC3)nc(N)c2cc1OCCN(C)C`, the figures for the inhibition in experiment [1] and in [2] were 44% and 33%, respectively. For the same molecule, the pIC50 was less than 3.79 with L6; less than 4.30 in the experiment on Trypanosoma cruzi; 5.66 in the experiment on Plasmodium falciparum; 4.66 in experiment [3]; less than 4.27 in the experiment on Leishmania donovani.

Take `COc1cc2nc(N3CCN(C(=O)[C@H]4Cc5ccccc5CN4)CC3)nc(N)c2cc1OC`: the inhibition in [1] and in [2] was 0% each time. Also, the negative logarithm of the IC50 (pIC50) was 4.43 with L6; 4.56 with Trypanosoma cruzi; 5.91 in the experiment on Plasmodium falciparum; 5.27 in experiment [3]; less than 4.17 in the experiment with Leishmania donovani.

In the case of `COC1=CC(=O)C=C(N2CCN(c3nc(N)c4cc(OC)c(OC)cc4n3)CC2)C1=O`, the inhibition in experiment [1] was determined as 69%; in experiment [2], 75%. Besides, the pIC50 with L6 was 4.28; in the experiment on Trypanosoma cruzi it was 4.45; with Plasmodium falciparum, 5.52; in experiment [3], 5.70; in the experiment on Leishmania donovani, 4.34. In addition, at Trypanothione reductase [9], the pKi was 4.49.
